According to PubChem BioAssay (NCI):
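These data come from cells grown in 96-well plates and exposed to compound for 48 hours at five concentrations. At the TGI there is no net growth.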

Key:
Assay in all cases: growth of human tumour cells (NCI), 48 h
[1] = test system: A549 NSCLC
[2] = test system: OVCAR-8 ovarian
[3] = test system: SF-295 CNS
[4] = test system: HS 578T breast
[5] = test system: BT-549 breast
[6] = test system: 786-0 renal
[7] = test system: NCI/ADR-RES ovarian
[8] = test system: MALME-3M melanoma
[9] = test system: HOP-62 NSCLC
[10] = test system: SF-539 CNS
[11] = test system: PC-3 prostate
[12] = test system: OVCAR-3 ovarian
[13] = test system: HOP-92 NSCLC
[14] = test system: KM12 colon
[15] = test system: HCT-15 colon
[16] = test system: OVCAR-5 ovarian
[17] = test system: SK-OV-3 ovarian
[18] = test system: SNB-19 CNS

| SMILES | TGI [1] [µM] | TGI [2] [µM] | TGI [3] [µM] | TGI [4] [µM] | TGI [5] [µM] | TGI [6] [µM] | TGI [7] [µM] | TGI [8] [µM] | TGI [9] [µM] | TGI [10] [µM] | TGI [11] [µM] | TGI [12] [µM] | TGI [13] [µM] | TGI [14] [µM] | TGI [15] [µM] | TGI [16] [µM] | TGI [17] [µM] | TGI [18] [µM] |
| --- | --- | --- | --- | --- | --- | --- | --- | --- | --- | --- | --- | --- | --- | --- | --- | --- | --- | --- |
| CN(N=O)C(N)=NC(=O)c1ccccc1 | > 100 | > 100 | > 100 | > 100 | > 100 | > 100 | > 100 | > 100 | > 100 | > 100 | > 100 | > 100 | > 100 | > 100 | > 100 | > 100 | > 100 | > 100 |
| O=Cc1cc(O)ccc1Br | > 100 | 53.7 | 99.5 | > 100 | > 83.4 | > 78.3 | > 76.2 | > 31.6 | > 96.2 | 60.5 | > 78.4 | > 91.8 | 75.7 | > 81.6 | 40.7 | > 100 | > 100 | > 100 |
| CCOC(=O)c1cc(NC(=O)c2ccccc2)c(=O)n2c(cc3c(Cl)cccc32)c1O | > 100 | > 100 | > 100 | > 100 | > 100 | > 100 | > 100 | > 100 | > 100 | > 100 | > 100 | > 100 | > 100 | > 100 | > 100 | > 100 | > 100 | > 100 |
| COC(=O)[C@@H](COC(=O)/C=C/c1ccc(OC(C)=O)c(OC(C)=O)c1)NC(=O)/C=C/c1ccc(OC(C)=O)c(OC(C)=O)c1 | > 100 | > 100 |  | 94.6 | > 100 | 73.7 | > 100 | 29.2 | 75.5 | 74.7 | > 100 | 50 | > 100 | 94.6 | 91.4 | > 100 | > 100 | > 100 |
| COc1cc(/C=C2\N=C(c3ccccc3)N(/N=C/c3cc4cc(C)ccc4nc3Cl)C2=O)ccc1O | > 100 | > 100 | > 100 | > 100 | > 100 | > 100 | > 100 |  | > 100 | > 100 | 50.1 | > 100 | > 100 | > 100 | > 100 | > 100 | > 100 | > 100 |
| Cc1c(/C=N\NC(=S)N(C)CCN(C)C(=S)N/N=C\c2c(C)n(C)n(-c3ccccc3)c2=O)c(=O)n(-c2ccccc2)n1C | > 100 |  | > 100 | > 100 | > 100 | > 100 | > 100 | > 100 | > 100 | > 100 | > 100 | > 100 | > 100 | > 100 | > 100 | > 100 | > 100 | > 100 |
| O=C1NC(c2ccccc2)C1N(Cc1ccccc1)Cc1ccccc1 (stereo not drawn) |  | > 100 | > 100 | > 100 | > 100 | > 100 | > 100 | > 100 | > 100 | > 100 | > 100 | > 100 | > 100 | > 100 | > 100 | > 100 | > 100 | > 100 |
| CN(C)c1ccc(C=Nc2ccc(-c3nc4ccccc4o3)cc2)cc1 | > 100 | > 100 |  | > 100 | > 100 | > 100 | > 100 | > 100 | > 100 | > 100 | 97.9 | 51.4 | > 100 | > 100 | > 100 | > 100 | > 100 | > 100 |
| c1ccc2c(-c3ccnc(-c4c[nH]c5ccccc45)n3)c[nH]c2c1 | > 100 | 22.9 | > 100 | > 100 | > 100 | 4.6 | > 100 |  | 28.7 | > 100 | 10.7 | > 100 | 5.83 | 23.9 | > 100 | > 100 | > 100 | > 100 |
| N#CCCN(CCC#N)c1ccc(/C=C2\N=C(c3ccccc3)N(NC(=O)c3ccncc3)C2=O)cc1 | > 100 | > 100 | > 100 | > 100 | > 100 | > 100 | > 100 |  | > 100 | > 100 | > 100 | > 100 | > 100 | > 100 | > 100 | > 100 | > 100 | > 100 |
